Entries after “also recorded” stand apart in the source; their conditions may differ.
Biological target: human protein kinase A (PKA) (Homo sapiens, UniProt P17612)
Test: Kinase/inhibitor assay on protein chip (33P-γ-ATP phosphorylation)
Assay type: biochemical
Details: peptide and MBP substrates; different concentrations of inhibitor; FIG. 7
Method: Substrates were bound to the surface of the GPTS-treated microwells on the protein chip at room temperature for one hour, then blocked with 1% BSA and 100 mM Tris pH 7.5, and washed three times with TBS buffer. Kinases and different concentrations of kinase inhibitors were added to the microwells in the presence of ^33P-γ-ATP. The phosphorylation reaction was carried out at 30° C. for thirty minutes. After completion of the reaction, the protein chip was washed extensively with TBS buffer at room temperature, and then allowed to dry. Phosphorylation signals were obtained by exposing the protein chip to either X-ray film or a phosphoimager.
A human protein kinase A (PKA), a human map kinase (MAPK), three yeast PKA homologs (TPK1, TPK2 and TPK3), and two other yeast protein kinases (HSL1 and RCK1) were tested against two substrates (i.e., a protein substrate for PKA and a commonly used kinase substrate, MBP) using different concentrations of PKIA (a specific human PKA inhibitor) or SB202190 (a MAPK inhibitor).

Compound: Oc1ccc(-c2nc(-c3ccncc3)c(-c3ccc(F)cc3)[nH]2)cc1 [SB202190]
- inhibition of PKA activity: did not inhibit; also recorded: did not show any inhibitory effect

Reference: patent US8399383B2, “Protein chips for high throughput screening of protein activity” (Yale University, priority 2000, dated 2013)
